According to publication PMC12075686, “Structural basis of phosphorylation-independent nuclear import of CIRBP by TNPO3” (Nature Communications, 2025):
Changes are numbered by the printed parent chain. Values belong to the molecule of their own block, whether it stands above or below them.

Columns and labels:
TNPO3 [1] = conditions: SAXS, monomer/dimer equilibrium; read-out: dissociation constant of TNPO3 dimerization in solution; cited from earlier work
Excerpt: We next aimed to gain insight into the structural basis for TNPO3 recognition of RSY-NLS and obtained crystals of TNPO3 C511A bound to CIRBP^RSY that diffracted X-rays to 2.94 Å resolution. This TNPO3 mutant was used for the determination of the 3D X-ray structure of the TNPO3-SRSF1 complex and increases TNPO3 stability. […] TNPO3 forms a dimer in the asymmetric unit of the crystal structure, as previously observed ... || page 9: Figure 2: Is TNPO3 a monomer in solution? In order for the reader to understand where are the additional contact points described in Sup Fig 2, a global view of the different contact points would be helpful. […] Out of the additional contact points in the crystal structure, the intermolecular salt bridge of E304 with K877 is the only contact which we could observe in both directions (chain A – chain B and vice versa). We in ...

TNPO3 C511A = target: T1, TNPO3 C511A (Homo sapiens, UniProt Q9Y5L0, C511A); assay: ITC, ligand titrated into TNPO3 C511A; type: binding; conditions: TNPO3 C511A
T1 construct: full-length (FL) WT human TNPO3 were generated by synthesizing codon-optimized DNA fragments; His6 (N, cleaved yes); protein A (N, cleaved yes); made in house; host or cells: Escherichia coli BL21-(DE3) Star
T1 sequence (Q9Y5L0 1-923 C511A): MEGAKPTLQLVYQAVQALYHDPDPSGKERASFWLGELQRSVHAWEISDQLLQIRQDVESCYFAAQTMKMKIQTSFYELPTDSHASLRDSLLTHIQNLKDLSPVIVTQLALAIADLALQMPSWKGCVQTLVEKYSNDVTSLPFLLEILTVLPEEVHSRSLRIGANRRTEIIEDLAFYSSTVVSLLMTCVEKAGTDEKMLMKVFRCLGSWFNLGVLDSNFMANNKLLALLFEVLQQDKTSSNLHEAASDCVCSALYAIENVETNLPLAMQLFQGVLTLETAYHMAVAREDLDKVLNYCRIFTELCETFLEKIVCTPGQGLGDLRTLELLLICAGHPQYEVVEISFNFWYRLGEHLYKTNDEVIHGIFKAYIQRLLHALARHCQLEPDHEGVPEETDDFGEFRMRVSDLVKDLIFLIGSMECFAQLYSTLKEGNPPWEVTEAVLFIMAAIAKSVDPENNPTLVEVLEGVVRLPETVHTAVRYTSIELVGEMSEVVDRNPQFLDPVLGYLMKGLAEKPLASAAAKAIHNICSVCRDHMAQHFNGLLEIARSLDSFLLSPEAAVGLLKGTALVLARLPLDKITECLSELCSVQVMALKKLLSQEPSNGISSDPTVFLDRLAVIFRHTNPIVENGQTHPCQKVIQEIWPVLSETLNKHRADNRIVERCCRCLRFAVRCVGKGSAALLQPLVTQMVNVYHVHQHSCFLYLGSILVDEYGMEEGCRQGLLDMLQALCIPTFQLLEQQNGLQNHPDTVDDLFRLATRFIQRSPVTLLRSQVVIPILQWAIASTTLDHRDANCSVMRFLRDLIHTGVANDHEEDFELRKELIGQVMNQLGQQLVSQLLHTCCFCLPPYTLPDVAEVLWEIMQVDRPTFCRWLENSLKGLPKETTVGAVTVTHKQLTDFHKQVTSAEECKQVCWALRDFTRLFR
Method: (§1) ITC has been performed by a Malvern Microcal VP-ITC at 25 °C for all binding studies. Samples have been dissolved in Tris buffer containing 50 mM Tris–HCl, 150 mM NaCl, 2 mM TCEP, and 0.04% NaN3 at pH 7.5. Binding studies of CIRBP^RSY and SRSF1^RS were performed with TNPO3 WT, and studies of CIRBP (157–172) and its mutants/phosphorylations were performed with TNPO3 C511A, respectively. Injection has been carried out by a syringe containing ligand solution of 100 μM, which adds ligand step-wise into the cell containing 10 μM TNPO3 during 28 injections of 10 μL each. Data analysis, curve fitting, and calculation of Kd, ΔH, and ΔS have been carried out using Origin-based 7.0 software provided by the manufacturer. All replicated ITC data are shown in Supplementary Fig. 6 and Supplementary Table 1.

TNPO3 WT = target: T2, TNPO3 WT (Homo sapiens, UniProt Q9Y5L0); assay: ITC, ligand titrated into TNPO3 WT; type: binding; conditions: ITC, TNPO3 WT
T2 sequence (Q9Y5L0 1-923): T1 sequence (Q9Y5L0 1-923 C511A) with A511C
Method: as §1

TNPO3 [2] = assay: NMR binding studies with TNPO3 (1H-15N HSQC, 1H-13C HMQC, 1H 1D, STD); set-up: species or system human
Method: All NMR studies for TNPO3 were carried out using the wild type protein. Protein samples for ^1H-^13C HMQC were prepared at a concentration of 100 μM and equilibrated in a buffer containing 50 mM Tris–HCl, pH 6.7, 150 mM NaCl, 2 mM TCEP and 10% D2O. Spectral acquisitions for TNPO3 free and in complex with CIRBP^RSY and SRSF1^RS, respectively were performed at 298 K on a 700 MHz Bruker Avance III NMR spectrometer equipped with a TCI triple-resonance cryoprobe. The pulse program was sfhmqcf2gpph and the spectra were recorded with 32 scans, interscan delay of 1 s, 160 points in F1, 1024 points in F2, 5283.879 Hz spectral width in F1, and 11,160.714 Hz spectral width in F2. Spectra were processed using Topspin 4.1.3.
Spectral acquisitions for TNPO3 free and in complex with mCIRBP^RSY, pCIRBP^RSY, and pSRSF1^RS, respectively, were performed at 298 K on a 600 MHz Bruker Avance Neo NMR spectrometer equipped with a TXI 600S3 probehead. The pulse program was hmqcgpphwg and the spectra were recorded with 64 scans, interscan delay of 1 s, 200 points in F1, 1024 points in F2, 4545.455 Hz spectral width in F1, and 7812.500 Hz spectral width in F2. Spectra were processed using Topspin 4.3.0.
For ^1H-^15N HSQC spectra, protein samples were equilibrated in a buffer containing 50 mM Tris–HCl, pH 6.7, 150 mM NaCl, 2 mM TCEP, 0.04% NaN3, and 10% D2O (with additional 20 mM MgCl2 for CIRBP phosphorylation kinetics). Data were recorded at 298 K on the 600 MHz Bruker Avance Neo NMR spectrometer equipped with a TXI 600S3 probehead. The pulse program was hsqcetfpf3gpsi and was recorded with 8-16 scans, interscan delay of 1 s, 128 points in F1, 1024 points in F2, 1949.318 Hz spectral width in F1, and 9615.385 Hz spectral width in F2. Spectra were processed using Topspin 4.3.0.

transportin-1 (TNPO1) = conditions: cited from earlier work
Excerpt: CIRBP, a nuclear protein known for its role in regulating mRNA stability and DNA repair, translocates from the nucleus to the cytoplasm under stress condition, forming stress granules[31],[32]. It is a typical RNA-binding pro ... || page 4: REVIEWER COMMENTS Comments are highlighted with a green background Reviewer #1 (Remarks to the Author) TNPO3 is an important karyopherin involved in some human pathologies and HIV-1 infection. Its best characterized biological function is in nuclear import of SR and SR-like repeat containing proteins, such as SFRS1 and CPSF6. […] Intriguingly, TNPO3 engages these alternative NLSs via the same region, which it ...

[3] = target: T3, Transportin 3 (TNPO3), full-length wild type (human, UniProt Q9Y5L0 1-923); assay: ITC
T3 chain: T1 sequence (Q9Y5L0 1-923 C511A) with A511C

[4] = target: T4, Transportin 3 (TNPO3) C511A mutant (human, UniProt Q9Y5L0 1-923, C511A); assay: ITC; 100 µM ligand in the syringe injected (28 x 10 µL) into 10 µM TNPO3 (WT or C511A) in the cell; 25 °C; 50 mM Tris-HCl pH 7.5, 150 mM NaCl, 2 mM TCEP, 0.04% NaN3; conditions: both partners purified
T4 construct: Transportin 3 (TNPO3), human, C511A mutant that increases stability; Two chains in the asymmetric unit of 8CMK; source: E. coli BL21-(DE3) Star, purified (Ni-NTA, TEV cleavage, second Ni-NTA, SEC Superdex 200)
T4 sequence: T1 sequence (Q9Y5L0 1-923 C511A)

[5] = target: T5, Transportin 3 (TNPO3), full-length wild type (human, UniProt Q9Y5L0 1-923); assay: as above; conditions: both partners purified
T5 construct: Transportin 3 (TNPO3), human, full-length wild type; For the NMR experiments made 15N-labelled with 13C-methyl labelling of isoleucine and methionine side chains ([IM-methyl 13C]); Vector pETM11-His6-protein A with a TEV site downstream of the protein A tag; also called TNPO3 WT; TNPO3 FL WT; source: E. coli BL21-(DE3) Star, purified (Ni-NTA, TEV cleavage, second Ni-NTA, SEC Superdex 200); not …
T5 sequence (looked up): T1 sequence (Q9Y5L0 1-923 C511A) with A511C

[6] = target: T3, Transportin 3 (TNPO3), full-length wild …; assay: ITC; rep2

Molecule: TNPO3: Transportin 3, nuclear import receptor; here its own monomer/dimer equilibrium
Kd (TNPO3 [1]): 8300 ± 1000 nM

ΔS (TNPO3 C511A; rep1, reference for alanine mutation): –124 cal/mol/deg
ΔS (TNPO3 C511A; rep2, reference for alanine mutation): –242 cal/mol/deg
ΔS (TNPO3 WT; replicate 1 (rep1)): –101 cal/mol/deg
ΔS (TNPO3 WT; replicate 2 (rep2)): –192 cal/mol/deg
Molecule: H-GSRDYYSSRSQSGGYSDRSSGGSYRDSYDSYATHNE-OH [CIRBP^RSY]
change of peptide 1H 1D NMR signals with sub-stoichiometric TNPO3 (TNPO3 [2]; 100 µM RSY regions and 10 µM TNPO3 (peer review reply)): slight decrease of peptide signal intensity
chemical shift perturbations of TNPO3 methyl groups upon ligand addition (1H,13C HMQC) (TNPO3 [2]; 100 µM [IM-methyl 13C] labeled TNPO3, one stoichiometric equivalent of ligand, 298 K, pH 6.7): led to CSPs of several TNPO3 ^1H,^13C cross-peaks
fold lower binding affinity for TNPO1 than for TNPO3 (transportin-1 (TNPO1)): approximately 70

Kd [3]: 870 nM
Kd [4]: 970 ± 130 nM
Kd [5]: 610 ± 100 nM
Kd [6]: 870 nM
B1: RSY region of cold-inducible RNA-binding protein (CIRBP), residues 138-172 (domain or fragment, human, UniProt Q14011 138-172, looked up)
chain: SRDYYSSRSQSGGYSDRSSGGSYRDSYDSYATHNE
notes: Only residues 158-171 were modelled in PDB 8CMK; also called CIRBP^RSY; RSY-NLS; source: E. coli BL21-(DE3) Star, purified (denaturing lysis, Ni-NTA, TEV cleavage, second Ni-NTA, SEC Superdex 30); not shown: His6, N-terminal, cleaved; protein A, N-terminal, cleaved
